Among the data in ChEMBL document CHEMBL3228041, “Propiolaldehyde, a pargyline metabolite that irreversibly inhibits aldehyde dehydrogenase. Isolation from a hepatic microsomal system” (J Med Chem, 1979) are Activity, inhibition and Drug metabolism values, retold here.

For series [1], the species on record is Rattus norvegicus. Put plainly: Induction of ethanol-derived blood acetaldehyde level in 0.1% phenobarbital for 8 days pretreated Sprague-Dawley rat measured after 2 hrs of acute ethanol dose. The class given is functional, organism-based.
The species entered for series [2] is Rattus norvegicus. Put plainly: Inhibition of Sprague-Dawley rat liver mitochondrial aldehyde dehydrogenase at 1 mM measured immediately after compound addition at 38 degC in presence of 0.25 M sucrose relative to control.
For series [3], the species on record is Rattus norvegicus. Put plainly: Inhibition of Sprague-Dawley rat liver mitochondrial aldehyde dehydrogenase assessed as complete inhibition at 1 mM measured after 5 to 10 mins at 38 degC in presence of 0.25 M sucrose.
The species named for series [4] is Rattus norvegicus. Put plainly: Inhibition of Sprague-Dawley rat liver mitochondrial aldehyde dehydrogenase at 1 mM after 5 mins at 25 degC in presence of 0.25 M sucrose relative to control.
For series [5], the species on record is Rattus norvegicus. Briefly: Inhibition of Sprague-Dawley rat liver mitochondrial aldehyde dehydrogenase at 1 mM after 5 mins at 0 degC in presence of 0.25 M sucrose relative to control.
The species named for series [6] is Rattus norvegicus. Briefly: Irreversible inhibition of Sprague-Dawley rat liver mitochondrial aldehyde dehydrogenase at 1 mM incubated for 10 mins at 38 degC in presence of 0.25 M sucrose followed by compound washout measured relative to control.
Series [7] is filed under the species Rattus norvegicus. Put plainly: Inhibition of Sprague-Dawley rat liver mitochondrial aldehyde dehydrogenase at 1 mM at 38 degC in presence of 0.25 M sucrose relative to control. The conditions noted are these: TDE = time-dependent effect.
The test system of series [8] is Liver microsome. Put plainly: Drug level in Sprague-Dawley rat liver microsomes treated with phenobarbital by GC-MS analysis in presence of NADPH. The class given is ADME.

Calls of active or inactive are those of the source. The rule behind the calls is not given here.

For the compound `C#CCN(C)Cc1ccccc1`, the result in series [1] was Active.

Take `C#CC=O` [PROPYNAL]: the inhibition (commonly the percentage by which the read-out fell short of the control) in series [2] is 43%; in series [4] it was 45%; in series [5], 32%; in series [7], “tde”. The inhibition result in series [3] and in series [6] was “Active” in each case. For the same compound, in series [8], the Drug metabolism entry is listed as “metabolite_detected”.
